Measured values as given in ChEMBL document CHEMBL4364273, “Discovery of SHR1653, a Highly Potent and Selective OTR Antagonist with Improved Blood-Brain Barrier Penetration” (ACS Med Chem Lett, 2019).
pIC50: −log10 of the molar value. One block for each molecule: values may come before it.

Assays:
[1] = biological target: T1, Oxytocin receptor (Homo sapiens, UniProt P30559); experiment: Antagonist activity at human OTR expressed in HEK293 cells assessed as decrease in calcium flux measured after 10 mins in […] by Fluo-4 dye based microplate reader based assay; format: functional, cell-based
T1 sequence (P30559 whole entry): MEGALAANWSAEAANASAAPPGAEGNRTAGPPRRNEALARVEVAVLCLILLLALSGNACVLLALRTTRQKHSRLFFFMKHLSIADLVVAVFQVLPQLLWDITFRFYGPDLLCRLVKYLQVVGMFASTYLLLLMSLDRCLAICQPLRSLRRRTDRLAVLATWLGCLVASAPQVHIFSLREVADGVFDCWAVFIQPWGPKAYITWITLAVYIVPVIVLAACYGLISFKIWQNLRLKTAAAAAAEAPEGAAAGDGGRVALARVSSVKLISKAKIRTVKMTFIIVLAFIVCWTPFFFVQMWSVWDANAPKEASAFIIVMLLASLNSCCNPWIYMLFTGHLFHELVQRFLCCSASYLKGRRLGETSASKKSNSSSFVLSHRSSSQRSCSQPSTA

[2] = biological target: Vasopressin V1a receptor (Homo sapiens, UniProt P37288); experiment: Antagonist activity at human vasopressin V1A receptor expressed in HEK293 cells assessed as decrease in vasopressin-stimulated calcium flux measured after 10 mins by Fluo-4 dye based microplate reader based assay; format: functional, cell-based
[3] = biological target: T2, Vasopressin V1b receptor (Homo sapiens, UniProt P47901); experiment: Antagonist activity at human vasopressin V1B receptor expressed in HEK293 cells assessed as decrease in vasopressin-stimulated calcium flux measured after 10 mins by Fluo-4 dye based microplate reader based assay; format: functional, cell-based
T2 sequence (P47901 whole entry): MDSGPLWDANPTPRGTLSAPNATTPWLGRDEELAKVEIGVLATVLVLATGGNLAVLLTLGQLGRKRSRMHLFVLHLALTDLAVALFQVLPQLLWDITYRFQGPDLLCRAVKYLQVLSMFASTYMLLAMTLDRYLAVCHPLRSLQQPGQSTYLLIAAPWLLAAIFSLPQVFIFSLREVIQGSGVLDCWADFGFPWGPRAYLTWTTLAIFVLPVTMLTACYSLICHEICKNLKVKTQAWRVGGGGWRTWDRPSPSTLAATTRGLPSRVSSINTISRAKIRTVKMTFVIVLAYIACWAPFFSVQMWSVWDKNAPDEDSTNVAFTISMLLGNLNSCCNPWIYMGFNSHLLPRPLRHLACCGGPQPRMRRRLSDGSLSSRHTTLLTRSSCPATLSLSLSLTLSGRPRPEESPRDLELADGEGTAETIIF

[4] = Cmax in Sprague-Dawley rat at 2 mg/kg, po measured for 24 hrs by LC-MS/MS analysis; format: ADME, organism-based; set-up: dose 2 mg/kg, route oral; conditions: in vivo
[5] = Half-life in Sprague-Dawley rat at 2 mg/kg, po measured for 24 hrs by LC-MS/MS analysis; format: ADME, organism-based; conditions: in vivo
[6] = Clearance in Sprague-Dawley rat at 1 mg/kg, iv measured for 24 hrs by LC-MS/MS analysis; format: ADME, organism-based; conditions: in vivo
[7] = AUC (0 to 24 hrs) in Sprague-Dawley rat at 2 mg/kg, po by LC-MS/MS analysis; format: ADME, organism-based; set-up: time < 24 hr, dose 2 mg/kg, route oral; conditions: in vivo
[8] = biological target: Voltage-gated inwardly rectifying potassium channel KCNH2 (Homo sapiens, UniProt Q12809); experiment: Inhibition of human ERG
[9] = Unbound fraction in Sprague-Dawley rat plasma by LC-MS/MS analysis; format: ADME, cell-free
[10] = Unbound fraction in Sprague-Dawley rat brain by LC-MS/MS analysis; format: ADME, tissue-based
[11] = Plasma concentration in Sprague-Dawley rat by LC-MS/MS analysis; format: ADME, cell-free
[12] = Drug concentration in Sprague-Dawley rat brain by LC-MS/MS analysis; format: ADME, tissue-based; conditions: in vivo
[13] = Unbound brain-to-plasma concentration ratio in Sprague-Dawley rat by LC-MS/MS analysis; format: ADME, cell-free; conditions: read-out: K(p,uu,brain)
[14] = test system: Rattus norvegicus; experiment: Anti-premature ejaculation activity in anesthetized oxytocin-induced uterine contraction Sprague-Dawley rat model assessed as decrease in intraluminal uterine pressure at 30 mg/kg, po treated for 20 mins and 1 hr later treated with oxytocin and measured for 15 to 30 mins relative to control; format: functional
[15] = AUC (0 to 24 hrs) in anesthetized oxytocin-induced uterine contraction Sprague-Dawley rat model at 30 mg/kg, po; format: ADME, organism-based; set-up: dose 30 mg/kg, time < 24 hr, route oral; conditions: in vivo

Vasopressin V1a receptor, sequence (P37288 whole entry): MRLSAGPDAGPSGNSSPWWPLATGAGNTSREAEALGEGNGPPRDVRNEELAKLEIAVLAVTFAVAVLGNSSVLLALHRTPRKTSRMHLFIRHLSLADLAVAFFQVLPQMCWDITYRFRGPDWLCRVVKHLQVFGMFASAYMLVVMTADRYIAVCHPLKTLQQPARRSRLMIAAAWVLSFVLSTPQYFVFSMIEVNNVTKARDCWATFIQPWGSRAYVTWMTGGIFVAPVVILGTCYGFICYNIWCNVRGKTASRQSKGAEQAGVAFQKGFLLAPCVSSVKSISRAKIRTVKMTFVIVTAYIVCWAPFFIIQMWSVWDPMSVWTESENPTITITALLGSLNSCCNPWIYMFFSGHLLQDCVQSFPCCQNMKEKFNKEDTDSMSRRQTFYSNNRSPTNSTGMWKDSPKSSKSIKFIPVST
Voltage-gated inwardly rectifying potassium channel KCNH2, sequence (Q12809 whole entry): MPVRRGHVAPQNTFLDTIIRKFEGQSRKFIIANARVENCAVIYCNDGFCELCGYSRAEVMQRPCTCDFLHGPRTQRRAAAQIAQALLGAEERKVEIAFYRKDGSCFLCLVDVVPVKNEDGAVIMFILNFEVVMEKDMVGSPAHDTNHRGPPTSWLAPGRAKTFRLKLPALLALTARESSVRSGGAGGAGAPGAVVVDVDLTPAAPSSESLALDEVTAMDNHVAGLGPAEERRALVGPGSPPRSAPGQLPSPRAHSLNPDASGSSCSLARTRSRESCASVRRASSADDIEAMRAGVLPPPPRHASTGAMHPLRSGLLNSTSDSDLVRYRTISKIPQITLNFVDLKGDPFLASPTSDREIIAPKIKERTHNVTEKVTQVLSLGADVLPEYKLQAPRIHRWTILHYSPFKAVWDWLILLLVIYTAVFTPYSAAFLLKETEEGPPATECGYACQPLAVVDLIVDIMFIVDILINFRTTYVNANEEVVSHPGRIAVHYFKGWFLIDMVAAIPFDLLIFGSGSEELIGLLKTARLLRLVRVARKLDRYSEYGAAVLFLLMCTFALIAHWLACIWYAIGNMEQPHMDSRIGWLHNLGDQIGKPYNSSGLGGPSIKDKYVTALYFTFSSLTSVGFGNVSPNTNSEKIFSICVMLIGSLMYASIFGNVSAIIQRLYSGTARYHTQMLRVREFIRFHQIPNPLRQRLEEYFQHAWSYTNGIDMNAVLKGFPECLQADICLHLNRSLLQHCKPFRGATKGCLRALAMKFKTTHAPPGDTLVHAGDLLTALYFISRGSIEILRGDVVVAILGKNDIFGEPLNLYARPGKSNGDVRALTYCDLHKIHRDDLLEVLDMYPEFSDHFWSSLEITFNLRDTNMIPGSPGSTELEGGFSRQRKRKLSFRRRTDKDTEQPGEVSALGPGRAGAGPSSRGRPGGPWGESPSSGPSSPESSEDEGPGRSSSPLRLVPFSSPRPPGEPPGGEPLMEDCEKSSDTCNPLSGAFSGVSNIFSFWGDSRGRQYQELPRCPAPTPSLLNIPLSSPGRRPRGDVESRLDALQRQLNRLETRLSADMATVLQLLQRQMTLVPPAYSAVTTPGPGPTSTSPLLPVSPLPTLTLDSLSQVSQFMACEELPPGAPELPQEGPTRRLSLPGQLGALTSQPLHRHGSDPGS

- pIC50 [1]: 6.74
Structure (SMILES): COc1ccc(-n2c(CO[C@H]3CCOC3)nnc2N2C[C@@H]3C[C@]3(c3ccc(F)cc3Cl)C2)cn1

- pIC50 [2]: 5.73
Structure (SMILES): COc1ccc(-n2c(C(F)F)nnc2N2C[C@@H]3C[C@]3(c3ccc(F)cc3Cl)C2)cn1

- pIC50 [1]: 8.04
Structure (SMILES): CC[C@H](C)[C@@H]1C(=O)N[C@H](C2Cc3ccccc3C2)C(=O)N1[C@@H](C(=O)N1CCOCC1)c1ccc(C)nc1C [EPELSIBAN]

- pIC50 [1]: 5.86
Structure (SMILES): COCc1nnc(N2C[C@H]3C[C@@H](Oc4ccc(F)cc4Cl)C[C@H]3C2)n1-c1ccc(OC)nc1

- pIC50 [1]: 8.03
- pIC50 [2]: 5.76
- Cmax [4]: 135 ng/mL
- half-life [5]: 3.48 h
- clearance [6]: 17.8 mL/min/kg
- AUC(0-t) at 24 h [7]: 1020 ng·h/mL
Structure (SMILES): CCOCc1nnc(N2C[C@@H]3C[C@]3(c3ccc(F)cc3Cl)C2)n1-c1ccc(OC)nc1
- pIC50 [8]: 5.21

- pIC50 [2]: 6.09
Structure (SMILES): COCc1nnc(N2C[C@@H]3C[C@]3(c3ccc(F)cc3Cl)C2)n1-c1ccc2c(c1)OCO2

- pIC50 [1]: 5.91
Structure (SMILES): COCc1nnc(N2C3CCC2CC(Oc2ccc(F)cc2Cl)C3)n1-c1ccc(OC)nc1 (stereo not given)

- pIC50 [1]: 7.63
- fraction unbound [9]: 0.0664
- fraction unbound [10]: 0.0165
- Cp [11]: 699 ng/mL
- Ct [12]: 179 ng/g
- Kp uu [13]: 0.064
- AUC(0-t) at 24 h [15]: 39500 ng·h/mL
Structure (SMILES): COCc1nnc(N2CC(Oc3ccc(F)cc3Cl)C2)n1-c1ccc(OC)nc1
- inhibition in vivo at 30 mg/kg [14]: 76.5%

- pIC50 [1]: 6.65
- pIC50 [2]: 5.70
Structure (SMILES): COc1ccc(-n2c(CO[C@@H]3CCOC3)nnc2N2C[C@@H]3C[C@]3(c3ccc(F)cc3Cl)C2)cn1

- pIC50 [1]: 7.52
- Cmax [4]: 15 ng/mL
- half-life [5]: 3.15 h
- AUC(0-t) at 24 h [7]: 34 ng·h/mL
Structure (SMILES): COCc1nnc(N2C[C@@H]3C[C@]3(c3cccc(F)c3Cl)C2)n1-c1ccc(OC)nc1

- pIC50 [1]: 6.04
Structure (SMILES): COCc1nnc(N2CCN(Cc3ccc(F)cc3Cl)CC2)n1-c1ccc(OC)nc1

Further lines, the molecule ahead of its results:

Structure (SMILES): COCc1nnc(N2CC3(CCc4cc(F)ccc4O3)C2)n1-c1ccc(OC)nc1
- pIC50 [1]: 6.40

Structure (SMILES): COc1ccc(-n2c(CC#N)nnc2N2C[C@@H]3C[C@]3(c3ccc(F)cc3Cl)C2)cn1
- pIC50 [1]: 6.63
- pIC50 [2]: 6.11
- pIC50 [3]: 4.35

Structure (SMILES): COCc1nnc(N2CCC(c3ccc(F)cc3Cl)CC2)n1-c1ccc(OC)nc1
- pIC50 [1]: 8.00
- Cmax [4]: 96 ng/mL
- half-life [5]: 2.39 h
- clearance [6]: 45 mL/min/kg
- AUC(0-t) at 24 h [7]: 767 ng·h/mL

Structure (SMILES): COCc1nnc(C2CCN(Cc3ccc(F)cc3Cl)CC2)n1-c1ccc(OC)nc1
- pIC50 [1]: 5.52 to 5.55

Structure (SMILES): COCc1nnc(N2CC3COCC3(c3ccc(F)cc3Cl)C2)n1-c1ccc(OC)nc1 (stereo not given)
- pIC50 [1]: 5.59

Structure (SMILES): COCc1nnc(N2CC3CN(c4ccc(F)cc4Cl)C3C2)n1-c1ccc(OC)nc1 (stereo not given)
- pIC50 [1]: 6.92

Structure (SMILES): COCc1nnc(N2CC3CN(c4ccc(F)cc4Cl)CC32)n1-c1ccc(OC)nc1 (stereo not given)
- pIC50 [1]: 6.07

Structure (SMILES): COCc1nnc(N2CC3(C2)OCc2cc(F)ccc23)n1-c1ccc(OC)nc1
- pIC50 [1]: 5.17

Structure (SMILES): COCc1nnc(N2CCC(c3ccc(F)cc3Cl)C2)n1-c1ccc(OC)nc1 (stereo not given)
- pIC50 [1]: 7.57
- Cmax [4]: 204 ng/mL
- half-life [5]: 1.89 h
- AUC(0-t) at 24 h [7]: 478 ng·h/mL

Structure (SMILES): COc1ccc(-n2c(C3CC3)nnc2N2C[C@@H]3C[C@]3(c3ccc(F)cc3Cl)C2)cn1
- pIC50 [1]: 6.36
- pIC50 [2]: 4.96

Structure (SMILES): COc1ccc(-n2c(COC3CCOCC3)nnc2N2C[C@@H]3C[C@]3(c3ccc(F)cc3Cl)C2)cn1
- pIC50 [1]: 6.08

Structure (SMILES): COc1ccc(-n2c(COCCF)nnc2N2C[C@@H]3C[C@]3(c3ccc(F)cc3Cl)C2)cn1
- pIC50 [2]: 6.09
